Measured values as given in ChEMBL document CHEMBL1201862, “PubChem BioAssay data set” (2004).
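Compound exposure: 48 hours, 5 concentrations, 96-well plates. At the GI50, growth is halved.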 Activity calls are given as the source filed them. No stated cut-off is given here; in the data, active = GI50 up to about 1.1 µM and inactive = higher.

Key:
Assay in all cases: NCI-60 cell line screen, 48 h
SK-MEL-2 = tested on: SK-MEL-2
SK-OV-3 = tested on: SK-OV-3
COLO 205 = tested on: COLO 205
A549 = tested on: A549
OVCAR-5 = tested on: OVCAR-5
HCT-15 = tested on: HCT-15
OVCAR-4 = tested on: OVCAR-4
HT-29 = tested on: HT-29
U-251 = tested on: U-251
RXF 393 = tested on: RXF 393
NCI-H460 = tested on: NCI-H460
NCI-H23 = tested on: NCI-H23
UACC-257 = tested on: UACC-257
IGROV-1 = tested on: IGROV-1
HL-60 = tested on: HL-60
MCF7 = tested on: MCF7
EKVX = tested on: EKVX
MOLT-4 = tested on: MOLT-4
NCI-H226 = tested on: NCI-H226
HOP-62 = tested on: HOP-62

Compound	GI50 (SK-MEL-2)	GI50 (SK-OV-3)	GI50 (COLO 205)	GI50 (A549)	GI50 (OVCAR-5)	GI50 (HCT-15) [µM]	GI50 (OVCAR-4)	GI50 (HT-29)	GI50 (U-251)	GI50 (RXF 393)	GI50 (NCI-H460)	GI50 (NCI-H23)	GI50 (UACC-257)	GI50 (IGROV-1)	GI50 (HL-60)	GI50 (MCF7)	GI50 (EKVX)	GI50 (MOLT-4)	GI50 (NCI-H226)	GI50 (HOP-62)
CCCCN(CCCC)c1ccc(/N=N/c2ccc(S(=O)(=O)O)cc2)cc1	51.1 µM (inactive)	25.5 µM (inactive)	18.7 µM (inactive)	39.8 µM (inactive)	60.8 µM (inactive)	17.2	17.8 µM (inactive)	26.4 µM (inactive)	32.3 µM (inactive)	14.4 µM (inactive)	34 µM (inactive)	20.6 µM (inactive)	94.4 µM (inactive)	14.7 µM (inactive)	19.8 µM (inactive)	21.9 µM (inactive)	39.1 µM (inactive)	17.7 µM (inactive)		
O=C(NN1C(=O)CS(=O)(=O)C1c1ccc(C(F)(F)F)cc1)c1ccncc1 (stereo not given)	> 100 µM (inactive)	> 100 µM (inactive)	> 100 µM (inactive)	> 100 µM (inactive)	> 100 µM (inactive)	> 100	> 100 µM (inactive)	> 100 µM (inactive)	> 100 µM (inactive)	> 100 µM (inactive)	> 100 µM (inactive)	> 100 µM (inactive)	> 100 µM (inactive)		> 100 µM (inactive)			> 100 µM (inactive)	> 100 µM (inactive)	> 100 µM (inactive)
CC1(C)N/C(=C\C=O)C(C)(C)N1O	> 100 µM (inactive)	> 100 µM (inactive)	> 100 µM (inactive)	> 100 µM (inactive)	> 100 µM (inactive)	> 100	> 100 µM (inactive)	> 100 µM (inactive)	> 100 µM (inactive)	> 100 µM (inactive)	> 100 µM (inactive)	> 100 µM (inactive)	> 100 µM (inactive)	> 100 µM (inactive)	> 100 µM (inactive)	> 100 µM (inactive)	> 100 µM (inactive)	> 100 µM (inactive)	> 100 µM (inactive)	> 100 µM (inactive)
O=C(OC(=O)n1ccc2ccccc21)n1ccc2ccccc21	> 100 µM (inactive)	> 100 µM (inactive)	> 100 µM (inactive)	> 100 µM (inactive)	> 100 µM (inactive)	> 100	> 100 µM (inactive)	> 100 µM (inactive)	> 100 µM (inactive)	> 100 µM (inactive)	> 100 µM (inactive)	> 100 µM (inactive)	> 100 µM (inactive)	> 100 µM (inactive)	> 100 µM (inactive)	> 100 µM (inactive)	> 100 µM (inactive)	> 100 µM (inactive)	> 100 µM (inactive)	> 100 µM (inactive)
COc1cc2c(cc1OC)C(Cc1c3ccccc3cc3ccccc13)N(C)CC2 (stereo not given)	17.6 µM (inactive)	22.4 µM (inactive)	11.2 µM (inactive)	39.8 µM (inactive)	13.5 µM (inactive)	30.2	30.7 µM (inactive)	13.5 µM (inactive)	16.9 µM (inactive)	10.5 µM (inactive)	20 µM (inactive)	29 µM (inactive)	18.9 µM (inactive)	20.7 µM (inactive)	10.4 µM (inactive)	13.7 µM (inactive)	25.6 µM (inactive)	16 µM (inactive)	24.1 µM (inactive)	21.4 µM (inactive)
COc1ccc(-c2c(C#N)c(NC(=S)NC(=O)c3ccccc3)nc3c2CCCC3)cc1OC		> 100 µM (inactive)	> 100 µM (inactive)	52.4 µM (inactive)	98.2 µM (inactive)	> 100	45.4 µM (inactive)	58.6 µM (inactive)	71.1 µM (inactive)	18.3 µM (inactive)	35 µM (inactive)	67.9 µM (inactive)	46.6 µM (inactive)	62.1 µM (inactive)	34.1 µM (inactive)	46.3 µM (inactive)	24.5 µM (inactive)	27 µM (inactive)		44.9 µM (inactive)
CC1(C)CCc2ccc(OCCC(=O)O)cc2O1	> 100 µM (inactive)	> 100 µM (inactive)	> 100 µM (inactive)	> 100 µM (inactive)	> 100 µM (inactive)	> 100	> 100 µM (inactive)	> 100 µM (inactive)	> 100 µM (inactive)		> 100 µM (inactive)	> 100 µM (inactive)		> 100 µM (inactive)	> 100 µM (inactive)		> 100 µM (inactive)	> 100 µM (inactive)	> 100 µM (inactive)	> 100 µM (inactive)
CCOC(=O)/C(O)=C1\C(=O)N(C)C(=O)C1c1ccc(OC)c(OC)c1 (stereo not given)	> 100 µM (inactive)	> 100 µM (inactive)	> 100 µM (inactive)	> 100 µM (inactive)	> 100 µM (inactive)	> 100	> 100 µM (inactive)	> 100 µM (inactive)	> 100 µM (inactive)	> 100 µM (inactive)	> 100 µM (inactive)	> 100 µM (inactive)	> 100 µM (inactive)	> 100 µM (inactive)	> 100 µM (inactive)	> 100 µM (inactive)	> 100 µM (inactive)	> 100 µM (inactive)	> 100 µM (inactive)	> 100 µM (inactive)
